According to ChEMBL document CHEMBL3608273, “Discovery of Biaryl Amides as Potent, Orally Bioavailable, and CNS Penetrant RORγt Inhibitors” (ACS Med Chem Lett, 2015):

Assays:
[1] = AUC (0 to 4 hrs) in C57BL/6 mouse blood at 2 mg/kg, ip by LC/MS/MS method; type: ADME, organism-based; design: time < 4 hr, dose 2 mg/kg, route intraperitoneal
[2] = Inhibition of Th17 cell differentiation in mouse CD4-positive T cells incubated for 3 days by ELISA method; details: Th17, 72 h, read-out: pIC50 (converted)
[3] = AUC (0 to 4 hrs) in C57BL/6 mouse brain at 2 mg/kg, ip by LC/MS/MS method; type: ADME, organism-based; design: time < 4 hr, dose 2 mg/kg, route intraperitoneal
[4] = Blood clearance in C57BL/6 mouse at 1 mg/kg, ip by LC/MS/MS method; type: ADME, organism-based
[5] = system: Mus musculus; assay: Dose normalized AUC (0 to infinity) in C57BL/6 mouse at 2 mg/kg, po by LC/MS/MS method; type: ADME, organism-based; details: in vivo
[6] = system: Mus musculus; assay: Volume of distribution at steady state in C57BL/6 mouse at 1 mg/kg, ip by LC/MS/MS method; type: ADME, organism-based; details: in vivo
[7] = Oral bioavailability in C57BL/6 mouse at 2 mg/kg by LC/MS/MS method; type: ADME, organism-based; details: in vivo
[8] = Half life in C57BL/6 mouse at 1 mg/kg, ip by LC/MS/MS method; type: ADME, organism-based; details: in vivo
[9] = Cmax in C57BL/6 mouse at 2 mg/kg, po by LC/MS/MS method; type: ADME, organism-based; design: dose 2 mg/kg, route oral; details: in vivo
[10] = organism: Mus musculus; details: C57BL/6 (B6), 1 to 10 mg/kg
Description: Inhibition of disease severity in C57BL/6 (B6) mouse model of experimental autoimmune encephalomyelitis at 1 to 10 mg/kg, po qd dosed starting from day of immunization

[11] = system: Mus musculus; assay: Dose normalized AUC (0 to infinity) in C57BL/6 mouse at 10 mg/kg, po by LC/MS/MS method; type: ADME, organism-based; details: in vivo
[12] = molecular target: T1, Nuclear receptor ROR-gamma (Homo sapiens, UniProt P51449); assay: Inhibition of RORgammat (unknown origin) assessed as inhibition of agonist-induced response by FRET assay
T1 sequence (P51449 whole entry): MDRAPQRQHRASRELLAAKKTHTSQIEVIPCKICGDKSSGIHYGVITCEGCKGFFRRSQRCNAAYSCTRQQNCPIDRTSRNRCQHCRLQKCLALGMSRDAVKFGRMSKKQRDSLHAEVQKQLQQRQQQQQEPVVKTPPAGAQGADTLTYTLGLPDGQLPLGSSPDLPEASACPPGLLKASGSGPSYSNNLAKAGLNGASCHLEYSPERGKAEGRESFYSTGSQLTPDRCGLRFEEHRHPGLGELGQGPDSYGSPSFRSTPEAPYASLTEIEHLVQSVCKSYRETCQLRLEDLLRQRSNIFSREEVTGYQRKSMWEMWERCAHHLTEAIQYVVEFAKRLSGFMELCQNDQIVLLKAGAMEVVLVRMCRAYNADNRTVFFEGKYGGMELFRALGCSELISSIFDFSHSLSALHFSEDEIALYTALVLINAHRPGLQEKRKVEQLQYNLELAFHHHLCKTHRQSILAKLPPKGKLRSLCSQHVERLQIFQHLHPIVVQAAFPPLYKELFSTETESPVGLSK

[13] = Ratio of AUC (0 to 4 hrs) in brain to blood of C57BL/6 mouse at 2 mg/kg, ip by LC/MS/MS method; type: ADME, organism-based

| AUC(0-t) at 4 h [1] | IC50 [2] | AUC(0-t) at 4 h [3] | Compound | further results |
| --- | --- | --- | --- | --- |
| 881 ng·h/mL | 7.94 nM | 1760 ng·h/mL | CCS(=O)(=O)c1ccc(CC(=O)Nc2ccc(-c3ccc(Cl)cc3OC(F)(F)F)c(Cl)c2)cc1 | – |
| – | > 10000 nM | – | CCS(=O)(=O)c1ccc(CC(=O)Nc2ccc(-c3ccccc3OC(F)(F)F)c(C(=O)O)c2)cc1 | – |
| – | 25.1 nM | – | CCS(=O)(=O)c1ccc(CC(=O)Nc2ccc(-c3ccccc3OC(F)(F)F)c(C)c2)cc1 | – |
| – | > 10000 nM | – | CCS(=O)(=O)c1ccc(CC(=O)Nc2ccc(-c3ccccc3)cc2)cc1 | – |
| – | 158 nM | – | CCS(=O)(=O)c1ccc(CC(=O)Nc2ccc(-c3ccccc3OC(F)(F)F)cc2)cc1 | – |
| – | 79.4 nM | – | CCS(=O)(=O)c1ccc(CC(=O)Nc2ccc(-c3ccccc3OC(F)(F)F)c(Cl)c2)cc1 | CL/F [4]: 11.6 mL/min/kg; AUC/dose [5]: 1313 ng·h/mL/mg/kg; Vdss [6]: 3.8 L/kg; bioavailability [7]: 102%; half-life [8]: 4.2 h; Cmax [9]: 203 ng/mL |
| 2020 ng·h/mL | 50.1 nM | 2350 ng·h/mL | CS(=O)(=O)c1ccc(CC(=O)Nc2ccc(-c3ccc(Cl)cc3OC(F)(F)F)c(F)c2)cc1 | – |
| – | > 6310 nM | – | CCS(=O)(=O)c1ccc(CC(=O)Nc2ccc(-c3cccn3C)c(Cl)c2)cc1 | – |
| 2400 ng·h/mL | 63.1 nM | 3520 ng·h/mL | Cc1cc(NC(=O)Cc2ccc(S(C)(=O)=O)cc2)ccc1-c1ccc(Cl)cc1OC(F)(F)F | inhibition [10]: Dose-dependent effect; AUC/dose [11]: 4048 ng·h/mL/mg/kg |
| – | > 5010 nM | – | CCS(=O)(=O)c1ccc(CC(=O)Nc2ccc(-c3ncccc3C(F)(F)F)c(Cl)c2)cc1 | – |
| – | < 31.6 nM | – | CCS(=O)(=O)c1ccc(CC(=O)Nc2ccc(-c3ccccc3OC(F)(F)F)c(-c3cncnc3)c2)cc1 | – |
| – | – | – | CCS(=O)(=O)c1ccc(CC(=O)Nc2cccc(-c3cc(Cl)ccc3Cl)n2)cc1 | IC50 [12]: > 25100 nM |
| – | 2510 nM | – | CCS(=O)(=O)c1ccc(CC(=O)Nc2ccc(-c3ccccc3OC(F)(F)F)c(C(C)=O)c2)cc1 | – |
| 1930 ng·h/mL | 79.4 nM | 200 ng·h/mL | CCS(=O)(=O)c1ccc(CC(=O)Nc2cc(Cl)c(-c3ccccc3C#N)c(Cl)c2)cc1 | – |
| – | 63.1 nM | – | CCS(=O)(=O)c1ccc(CC(=O)Nc2ccc(-c3ccccc3OC(F)(F)F)c(-c3ccno3)c2)cc1 | – |
| – | 31.6 nM | – | CCS(=O)(=O)c1ccc(CC(=O)Nc2cc(Cl)c(-c3ccccc3OC(F)(F)F)c(C#N)c2)cc1 | – |
| – | 6310 nM | – | CCS(=O)(=O)c1ccc(CC(=O)Nc2ccc(-c3ccccc3)c(Cl)c2)cc1 | – |

| AUC(0-t) at 4 h [1] | IC50 [2] | AUC(0-t) at 4 h [3] | Compound | further results |
| --- | --- | --- | --- | --- |
| – | 1000 nM | – | CCS(=O)(=O)c1ccc(CC(=O)Nc2ccc(-c3ccccc3Cl)c(Cl)c2)cc1 | – |
| – | < 3.16 nM | – | CCS(=O)(=O)c1ccc(CC(=O)Nc2cc(C)c(-c3ccccc3OC(F)(F)F)c(Cl)c2)cc1 | – |
| 1730 ng·h/mL | 25.1 nM | 1700 ng·h/mL | CS(=O)(=O)c1ccc(CC(=O)Nc2ccc(-c3ccc(Cl)cc3OC(F)(F)F)c(Cl)c2)cc1 | – |
| 1180 ng·h/mL | 10 nM | 462 ng·h/mL | CCS(=O)(=O)c1ccc(CC(=O)Nc2cc(Cl)c(-c3ccccc3OC(F)F)c(Cl)c2)cc1 | – |
| 835 ng·h/mL | – | 658 ng·h/mL | CS(=O)(=O)c1ccc(CC(=O)Nc2cc(Cl)c(-c3ccccc3OC(F)(F)F)c(Cl)c2)cc1 | CL/F [4]: 5.5 mL/min/kg; AUC/dose [5]: 2465 ng·h/mL/mg/kg; Vdss [6]: 4.4 L/kg; bioavailability [7]: 100%; half-life [8]: 9.7 h; Cmax [9]: 214 ng/mL |
| – | – | – | CCS(=O)(=O)c1ccc(CC(=O)Nc2nc(-c3cc(Cl)ccc3Cl)cs2)cc1 | Kp [13]: 1.5 |
| 1380 ng·h/mL | 158 nM | 76 ng·h/mL | CCS(=O)(=O)c1ccc(CC(=O)Nc2cc(Cl)c(-c3ccc(F)cc3C#N)c(Cl)c2)cc1 | – |
| – | 7940 nM | – | CCS(=O)(=O)c1ccc(CC(=O)Nc2ccc(-c3ccccc3OC(F)(F)F)nc2)cc1 | – |
| – | 79.4 nM | – | CCS(=O)(=O)c1ccc(CC(=O)Nc2ccc(-c3ccccc3OC(C)C)c(Cl)c2)cc1 | – |
| 1220 ng·h/mL | – | 946 ng·h/mL | CCS(=O)(=O)c1ccc(CC(=O)Nc2cc(Cl)c(-c3ccccc3OC(F)(F)F)c(Cl)c2)cc1 | – |
| – | 200 nM | – | CCS(=O)(=O)c1ccc(CC(=O)Nc2ccc(-c3ccccc3C(F)(F)F)c(Cl)c2)cc1 | CL/F [4]: 17.6 mL/min/kg; AUC/dose [5]: 713 ng·h/mL/mg/kg; Vdss [6]: 3.2 L/kg; bioavailability [7]: 75%; half-life [8]: 2.2 h; Cmax [9]: 211 ng/mL |
| – | – | – | CCS(=O)(=O)c1ccc(CC(=O)Nc2nnc(-c3cc(Cl)ccc3Cl)s2)cc1 | IC50 [12]: > 25100 nM |
| – | 126 nM | – | CCS(=O)(=O)c1ccc(CC(=O)Nc2ccc(-c3ccccc3OC(F)(F)F)c(C(F)(F)F)c2)cc1 | – |
| 4880 ng·h/mL | 7.94 nM | 388 ng·h/mL | NS(=O)(=O)c1ccc(CC(=O)Nc2cc(Cl)c(-c3ccccc3OC(F)(F)F)c(Cl)c2)cc1 | – |
| – | > 10000 nM | – | CCS(=O)(=O)c1ccc(CC(=O)Nc2ccc(-c3ccccc3CN(C)C)c(Cl)c2)cc1 | – |
| – | – | – | CCS(=O)(=O)c1ccc(CC(=O)Nc2ncc(-c3cc(Cl)ccc3Cl)s2)cc1 | IC50 [12]: > 25100 nM |
